# Test results from BindingDB's records for doi:10.1021/acs.jmedchem.7b00089 (International Centre For Genetic Engineering and …, 2017).
# Target: T1, Heme ligase (Plasmodium falciparum (isolate 3D7), UniProt Q8IL04)
# T1 sequence (Q8IL04 whole entry): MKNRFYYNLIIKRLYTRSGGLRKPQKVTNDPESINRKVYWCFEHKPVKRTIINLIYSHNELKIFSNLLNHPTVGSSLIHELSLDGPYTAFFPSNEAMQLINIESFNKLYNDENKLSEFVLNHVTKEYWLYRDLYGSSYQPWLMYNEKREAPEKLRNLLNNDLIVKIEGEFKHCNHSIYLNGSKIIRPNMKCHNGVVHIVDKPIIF
# Assay: ChEBML_1681013
# Excerpt: Binding affinity to Plasmodium falciparum 3D7 HDP assessed as equilibrium dissociation constant by SPR assay
structure (smiles),measurement,value
FC(F)(F)c1cccc(N2CCN(C3=Cc4ccccc4CC3)CC2)c1,Kd,2960 nM
